Data taken from patent publication US6265445A, “Antiarrhythmic compounds” (priority 1997, dated 2001).
Structures can show the parent of a compound that is named as a salt. Where two headings read alike, the source gives them in different places.

What was measured:
[1] = test system: isolated right ventricular trabecule of dog heart; test: Extracellular electrophysiological measurements: impulse conduction time and effective refractory period; parameters: species or system mongrel dogs; conditions: for activation at 2 µM / activation at 10 µM / activation at 30 µM: Canis lupus familiaris; for effect on effective refractory period (in words) / effect on impulse conduction (in words): concentrations of Table 1
Description: Right ventricular trabecules were prepared from the heart of mongrel dogs (weighing 5 to 10 kg each). The surviving heart pieces were placed into an organ bath (37° C.) containing modified Tyrode's nutrient medium and excited by point stimulation with a basal frequency of 1 Hz. Extracellular bipolar platinum electrodes were placed on the surface of the preparations, by means of which the propagation of the superficial potentials were registered; thus, the determination of the time of impulse conduction or the rate of impulse conduction, respectively, and the effective refractory period (ERP) became possible. During our experiments,the frequency of stimulation was temporarily varied from 0.5 Hz up to 3 Hz. The tested compounds were directly added to the organ bath after dilution of the stock solution according to the desired final concentration.

[2] = test system: right ventricular papillary muscle of dogs; test: Intracellular microelectrode technique: action potential parameters, ventricular papillary muscle; parameters: species or system mongrel dogs; conditions: for Trecovery (recovery time constant of Vmax): Gy: kinetics of rapid restoration; for effect on duration of the action potential (in words) / effect on Vmax (in words): concentrations of Table 2; for effect on Vmax (in words): rapid recovery kinetics
Description: The method used is essentially in agreement with the method of Papp et al. [J. Cardiovascular Pharmacol. Ther. 1, 287-296 (1996)].
Right ventricular papillary muscle and Purkinje's fibres were prepared from the hearts of mongrel dogs (weighing 5 to 10 kg each). The preparations were placed into an organ bath (37° C.) containing modified Tyrode's nutrient medium. The preparations were excited by a basal frequency of 1 Hz. During the experiments, the frequency of stimulation was varied under broad limits by a computer-guided stimulator. The intracellular action potentials were registered by using glass capillary microelectrodes filled with 3 N potassium chloride solution (standard intracellular microelectrode techniques). The resting potential (RP), the amplitude of the action potential (APA) as well as the duration of the action potential (APD) were measured by using an IBM 386 compatible computer by means of an own-developed software. The compounds under test were directly added into the organ bath after dilution of the stock solutions according to the final concentrations desired. The effects of the compounds were observed after an incubation time of 30 to 40 minutes.

[3] = treatment group; cited from earlier work
[4] = test system: arrhythmias following coronary artery occlusion in conscious rats; test: Occlusion arrhythmia following acute coronary artery ligation in conscious rats; assay type: in vivo, male rats; conditions: for Occurrence of arrhythmias: Brady / Occurrence of arrhythmias: Free (no arrhythmia was observed) / Occurrence of arrhythmias: Other / Occurrence of arrhythmias: VF / Occurrence of arrhythmias: VT: first 15 minutes; for Arrhythmia Score: score system from 0 to 6
Description: The method used is essentially in agreement with the method of Lepran et al. [J. Pharmacol. Methods 9, pp. 219-230 (1983)].
During a previous operation, male rats weighing 340 to 360 g each were fitted with a loose surgical thread loop around the left descending coronary vessel, at about 2 mm from its origin. The ends of the loop thread were led out from the chest under the skin, then the surgical wound was closed. After complete recovery from this previous operation (7 to 8 days) acute myocardial ischaemia was induced by contracting the loose ligation in the conscious, freely moving animals. ECG was continuously registered by using bipolar chest electrodes before the ligation of the coronary artery and during the first 15 minutes of ischaemia. The ratio of survivals was determined and the developed arrhythmias were evaluated according to the Lambeth Convention [Walker et al.: Cardiovasc. Res. 22, 447-455 (1988)]. For evaluation of the arrhythmic episodes a score system was also employed by considering the severity of episodes on the basis of a score system from 0 to 6. Both d-sotalol and the substance of Example 15, respectively, were suspended in 1% methylcellulose and administered orally through a gastric sound at 1 hour before the compression of the coronary vessel. The control animals received a treatment with the same volume, i.e. 5 ml/kg of vehicle.

[5] = test system: occlusion and reperfusion arrhythmias in anaesthetized dogs; test: Occlusion and reperfusion arrhythmias following acute coronary ligation in anaesthetized dogs; assay type: in vivo, mongrel dogs; conditions: 3 mg/kg i.v.
Description: The method used is essentially in agreement with the method of Vegh et al. [Basic Res. Cardiol. 82, 159-171 (1987)].
Mongrel dogs of both sexes weighing 10 to 20 kg each were anaesthetized by a mixture of chloralose (60 mg/kg) and urethane (200 mg/kg) and the animals were maintained on artificial respiration. After opening the chest, the ramus descendens anterior (LAD) branch of the left coronary artery of heart was prepared from the first main collateral branch and a loose loop from surgical thread was placed around it. During our experiments, the blood pressure of the animal was measured by using a cannule introduced to the left femoral artery and even the standard ECG parameters by using needle electrodes were continuously registered. The arrhythmias were induced by the occlusion for 25 minutes of a loop placed round the LAD. The survival after lethal arrhythmias and frequency of the arrhythmias were registered. The 28 dogs used in the experiments were divided into three groups. The compound of Example 15 was administered in a dose of 1 mg/kg to 8 animals; d-sotalol was given in a dose of 3 mg/kg to 10 animals by a single intravenous injection 10 minutes before compression of the coronary vessel. The control dogs (10 animals) received 5 ml of physiological saline solution in the same manner as the treated animals.
By using this method it can be stated whether the substance investigated would be effective for protection against arrhythmias following the ligation of the coronary artery.

[6] = 1 Hz, read-out: Prolongation (%) of ERP
[7] = 1 Hz, read-out: Prolongation (%) of impulse conduction time
[8] = 3 Hz, read-out: Prolongation (%) of ERP
[9] = 3 Hz, read-out: Prolongation (%) of impulse conduction time

Cc1cccc(C)c1OCC(C)N(C)CCc1ccc(N)cc1 (stereo not shown) [Example 9, N-[2-(2,6-Dimethylphenoxy)-1-methylethyl]-N-methyl-2-(4-aminophenyl)ethylamine]
activation at 2 µM [1, 6]: 31.8%
activation at 2 µM [1, 7]: 38%
activation at 2 µM [1, 8]: 39.4%
activation at 2 µM [1, 9]: 51.3%
effect on effective refractory period (in words) [1]: simultaneous prolongation of the effective refractory period (ERP)
effect on impulse conduction (in words) [1]: significantly prolonged the time of impulse conduction in a frequency-dependent manner
APA (amplitude of the action potential) ([2]; 1 μM): 110 mV
APD50 (time of 50% repolarization) ([2]; 1 μM): 285 ms
APD90 (time of 90% repolarization) ([2]; 1 μM): 342 ms
RP (resting potential) ([2]; 1 μM): -91 mV
Recovery Ampl ([2]; 1 μM): 132.4 V/s
Recovery Ampl/Plateau ([2]; 1 μM): 0.61
Recovery Plateau ([2]; 1 μM): 216.5 V/s
Vmax (maximum rate of depolarization) ([2]; 1 μM): 200 V/s
Trecovery (recovery time constant of Vmax) ([2]; 1 μM): 307.4 ms
effect on duration of the action potential (in words) [2]: simultaneous prolongation of duration of the action potential (APD)
effect on Vmax (in words) [2]: mexiletine-like inhibition of Vmax

Cc1cccc(C)c1OC[C@@H](C)N(C)CCc1ccc(NS(C)(=O)=O)cc1.Cl [Example 17, (R)-N-[4-[2-[N-Methyl-N-[2-(2,6-dimethylphenoxy)-1-methylethyl]amino]ethyl]phenyl]methanesulfonamide hydrochloride]
activation at 10 µM [1, 6]: 12.1%
activation at 10 µM [1, 7]: 32.5%
activation at 10 µM [1, 8]: 17.1%
activation at 10 µM [1, 9]: 35.1%
effect on effective refractory period (in words) [1]: simultaneous prolongation of the effective refractory period (ERP)
effect on impulse conduction (in words) [1]: significantly prolonged the time of impulse conduction in a frequency-dependent manner
APA (amplitude of the action potential) ([2]; 5 μM): 106 mV
APD50 (time of 50% repolarization) ([2]; 5 μM): 203 ms
APD90 (time of 90% repolarization) ([2]; 5 μM): 249 ms
RP (resting potential) ([2]; 5 μM): -87 mV
Recovery Ampl ([2]; 5 μM): 85.2 V/s
Recovery Ampl/Plateau ([2]; 5 μM): 0.52
Recovery Plateau ([2]; 5 μM): 173.7 V/s
Vmax (maximum rate of depolarization) ([2]; 5 μM): 169 V/s
difference between the effects of Example 15 and its enantiomers (in words) ([2]; 5 μM): No essential difference could be observed
Trecovery (recovery time constant of Vmax) ([2]; 5 μM): 390.4 ms
effect on duration of the action potential (in words) [2]: simultaneous prolongation of duration of the action potential (APD)
effect on Vmax (in words) [2]: mexiletine-like inhibition of Vmax

CC(C)NCC(O)c1ccc(NS(C)(=O)=O)cc1 (single isomer, unassigned) [d-Sotalol, d-N-[4-[1-hydroxy-2-(1-methylethylamino)ethyl]phenyl]methanesulfonamide hydrochloride]
activation at 30 µM [1, 6]: 12.4%
activation at 30 µM [1, 7]: -4.5 ± 5.1%
activation at 30 µM [1, 8]: 7.1%
activation at 30 µM [1, 9]: -3.7 ± 4.7%
effect on effective refractory period (in words) [1]: showed a considerable effect only on the ERP
mortality in clinical trials (in words) [3]: increase in mortality ascribable to the proarrhythmic effect
antiarrhythmic effect (in words) ([4]; oral administration): proved to be inactive
Survival 15 minutes ([4]; p.o. 25 mg/kg): 2/29
Survival 16 hours ([4]; p.o. 25 mg/kg): 2/29
Occurrence of arrhythmias: Brady ([4]; p.o. 25 mg/kg): 2/29
Occurrence of arrhythmias: Free (no arrhythmia was observed) ([4]; p.o. 25 mg/kg): 0/0
Occurrence of arrhythmias: Other ([4]; p.o. 25 mg/kg): 3/43
Occurrence of arrhythmias: VF ([4]; p.o. 25 mg/kg): 7/100
Occurrence of arrhythmias: VT ([4]; p.o. 25 mg/kg): 7/100
Arrhythmia Score ([4]; p.o. 25 mg/kg): 5.71 ± 0.18
Survival 15 minutes ([4]; p.o. 50 mg/kg): 1/10
Survival 16 hours ([4]; p.o. 50 mg/kg): 0/0
Occurrence of arrhythmias: Brady ([4]; p.o. 50 mg/kg): 1/10
Occurrence of arrhythmias: Free (no arrhythmia was observed) ([4]; p.o. 50 mg/kg): 0/0
Occurrence of arrhythmias: Other ([4]; p.o. 50 mg/kg): 4/40
Occurrence of arrhythmias: VF ([4]; p.o. 50 mg/kg): 1/100
Occurrence of arrhythmias: VT ([4]; p.o. 50 mg/kg): 10/100
Arrhythmia Score ([4]; p.o. 50 mg/kg): 5.90 ± 0.10
Complete survival, animals [5]: 5/10
Complete survival, percent [5]: 50%
ES (extrasystole) ([5]; occlusion): 128 ± 14
VF (ventricular fibrillation), animals ([5]; occlusion): 3/10
VF (ventricular fibrillation), percent ([5]; occlusion): 30%
VT (ventricular tachycardia), animals ([5]; occlusion): 5/10
VT (ventricular tachycardia), percent ([5]; occlusion): 50%
VF (ventricular fibrillation), animals ([5]; reperfusion): 2/7
VF (ventricular fibrillation), percent ([5]; reperfusion): 29%
